Patent publication US20070074295A1 (priority 2000, published 2007)

Experiments:
CIRL3 variant AA mRNA = experiment: Semi-quantitative RT-PCR, prefrontal cortex, chronic PCP and antipsychotic treatment; assay type: in vivo, rat; conditions: chronic PCP plus antipsychotic
Protocol: FIG. 16 illustrates the level of CIRL3 variant AA mRNA present in the prefrontal cortex of rat brain following chronic PCP and antipsychotic treatment (n=12 for all groups apart from veh-veh where n=11) […] and […] (SEQ ID NOS: 29-30) were the primer sequences used to amplify this product.
(§1) RT-PCR for specific isoforms of CIRL was then conducted in the prefrontal cortex.
(§2) 1 ml of lysis buffer (Qiagen), including 1% β-mercaptoethanol, was added to approximately 50-100 mg of brain tissue. Tissue samples were homogenised using a ribolyser (Hybaid) with 3 bursts at 6.5 g lasting 20 seconds each. Samples were then spun at room temperature in a microfuge for 3 minutes. The supernatant was removed and re-spun for a further 3 minutes. The supernatant was decanted to a fresh tube to which an equal volume of 70% ethanol was added. The remaining RNA isolation procedure was carried out according to the manufacturer's protocol (Qiagen).
(§3) Synthesis of cDNA was carried out according to manufacturers protocols (Life Technologies). Briefly 3-5μg of total RNA was reverse transcribed using oligo dT priming. After cDNA synthesis, samples were aliquoted and stored at −70° C. […]
(§4) Alterations in expression levels were determined by semi-quantitative PCR. […] Samples were removed over 4 consecutive cycles, however, the first cycle to be removed sometimes varied depending on when logarithmic amplification was detected. […]

rats = experiment: Effect of haloperidol and clozapine on PCP induced hypofunction: LCGU; assay type: in vivo, rat; conditions: for LCGU, Au layer I / LCGU, Au layers II, III&IV / LCGU, Au layers V & VI / LCGU, AuD layer I / LCGU, AuD layers II, III&IV / LCGU, AuD layers V & VI / LCGU, CA1 molecular layer / LCGU, CA1 pyramidal cell layer / LCGU, CA1 stratum oriens / LCGU, CA1 stratum radiatum / LCGU, CA3 molecular layer / LCGU, CA3 pyramidal cell layer / LCGU, CA3 stratum oriens / LCGU, CA3 stratum radiatum / LCGU, DLL / LCGU, MD / LCGU, PrL layer I / LCGU, PrL layers II & III / LCGU, PrL layers V & VI / LCGU, Rt / LCGU, VLL / LCGU, cochlear nucleus / LCGU, mO layer I / LCGU, mO layers II & III / LCGU, mO layers V & VI: day 29
Description: The effect of antipsychotics on the positive symptoms is less well studied regarding imaging studies.

CIRL2 variant AB mRNA = experiment: Semi-quantitative RT-PCR, prefrontal cortex, chronic PCP and antipsychotic treatment; assay type: in vivo, rat; conditions: chronic PCP plus antipsychotic
Protocol: FIG. 15 illustrates the level of CIRL2 variant AB mRNA present in the prefrontal cortex of rat brain following chronic PCP and antipsychotic treatment (n=12 for all groups apart from veh-veh where n=11). […] and […] (SEQ ID NOS: 27-28) were the primer sequences used to amplify this product.
as §1, §2, §3, §4

TNFα mRNA = experiment: RT-PCR for TNFα mRNA in rat prefrontal cortex; assay type: in vivo; conditions: chronic PCP in combination with haloperidol vs chronic PCP group
Protocol: Four groups of rats were treated with (a) chronic PCP, (b) chronic vehicle (control), (c) chronic PCP plus chronic clozapine (as above) or (d) chronic PCP plus chronic haloperidol (as above). The tissue was processed for RNA extraction and RT-PCP as described above, using primers specific for TNFα mRNA.

CIRL1 mRNA = experiment: Semi-quantitative RT-PCR, prefrontal cortex, chronic PCP and antipsychotic treatment; assay type: in vivo, rat; conditions: chronic PCP plus antipsychotic
Protocol: FIG. 14 illustrates the level of CIRL1 mRNA present in the prefrontal cortex of rat brain following chronic PCP and antipsychotic treatment (n=12 for all groups apart from veh-veh where n=11). […] and […] (SEQ ID NOS: 25-26) were the primer sequences used to amplify this product.
as §1, §2, §3, §4

[1] = antipsychotic in conjunction with PCP 2.58 mgkg^−1
[2] = clozapine or haloperidol via minipump
[3] = i.p. PCP 2.58 mgkg^−1, minipump vehicle, clozapine 20 or haloperidol 1 mgkg^−1/day
[4] = i.p. vehicle, minipump clozapine 20 or haloperidol 1 mgkg^−1/day

SMILES: O=C(CCCN1CCC(O)(c2ccc(Cl)cc2)CC1)c1ccc(F)cc1 [haloperidol]
- effect on PCP-induced reductions in CIRL3 (CIRL3 variant AA mRNA): reversed
- effect on PCP hypofunction in medial orbital cortex, prelimbic cortex, CA1, reticular nucleus of the thalamus (rats; [1]): failed to modulate the hypofunction produced by PCP
- effect on PCP-induced hypofunction in auditory system (AuD, lateral lemniscus, cochlear nucleus) (rats; [1]): reversed the PCP-induced hypofunction
- LCGU in auditory system (AuD, lateral lemniscus, cochlear nucleus), drug alone (rats; [2]): did not produce a significant hypofunction
- LCGU in medial orbital cortex, prelimbic cortex, CA1, reticular nucleus of the thalamus, drug alone (rats; [2]): produced a metabolic hypofunction
- LCGU, Au layer I (rats; [3]): 141 ± 8 μmol/100 g/min
- LCGU, Au layers II, III&IV (rats; [3]): 174 ± 10 μmol/100 g/min
- LCGU, Au layers V & VI (rats; [3]): 117 ± 7 μmol/100 g/min
- LCGU, AuD layer I (rats; [3]): 133 ± 7 μmol/100 g/min
- LCGU, AuD layers II, III&IV (rats; [3]): 156 ± 10 μmol/100 g/min
- LCGU, AuD layers V & VI (rats; [3]): 106 ± 6 μmol/100 g/min
- LCGU, CA1 molecular layer (rats; [3]): 97 ± 4 μmol/100 g/min
- LCGU, CA1 pyramidal cell layer (rats; [3]): 70 ± 4 μmol/100 g/min
- LCGU, CA1 stratum oriens (rats; [3]): 64 ± 4 μmol/100 g/min
- LCGU, CA1 stratum radiatum (rats; [3]): 74 ± 4 μmol/100 g/min
- LCGU, CA3 molecular layer (rats; [3]): 94 ± 6 μmol/100 g/min
- LCGU, CA3 pyramidal cell layer (rats; [3]): 74 ± 5 μmol/100 g/min
- LCGU, CA3 stratum oriens (rats; [3]): 69 ± 5 μmol/100 g/min
- LCGU, CA3 stratum radiatum (rats; [3]): 76 ± 5 μmol/100 g/min
- LCGU, DLL (rats; [3]): 107 ± 2 μmol/100 g/min
- LCGU, MD (rats; [3]): 119 ± 6 μmol/100 g/min
- LCGU, PrL layer I (rats; [3]): 115 ± 3 μmol/100 g/min
- LCGU, PrL layers II & III (rats; [3]): 134 ± 4 μmol/100 g/min
- LCGU, PrL layers V & VI (rats; [3]): 97 ± 3 μmol/100 g/min
- LCGU, Rt (rats; [3]): 80 ± 1 μmol/100 g/min
- LCGU, VLL (rats; [3]): 110 ± 3 μmol/100 g/min
- LCGU, cochlear nucleus (rats; [3]): 115 ± 2 μmol/100 g/min
- LCGU, mO layer I (rats; [3]): 105 ± 4 μmol/100 g/min
- LCGU, mO layers II & III (rats; [3]): 116 ± 4 μmol/100 g/min
- LCGU, mO layers V & VI (rats; [3]): 119 ± 4 μmol/100 g/min
- LCGU, Au layer I (rats; [4]): 142 ± 9 μmol/100 g/min
- LCGU, Au layers II, III&IV (rats; [4]): 167 ± 9 μmol/100 g/min
- LCGU, Au layers V & VI (rats; [4]): 112 ± 9 μmol/100 g/min
- LCGU, AuD layer I (rats; [4]): 139 ± 9 μmol/100 g/min
- LCGU, AuD layers II, III&IV (rats; [4]): 153 ± 9 μmol/100 g/min
- LCGU, AuD layers V & VI (rats; [4]): 108 ± 7 μmol/100 g/min
- LCGU, CA1 molecular layer (rats; [4]): 92 ± 5 μmol/100 g/min
- LCGU, CA1 pyramidal cell layer (rats; [4]): 63 ± 4 μmol/100 g/min
- LCGU, CA1 stratum oriens (rats; [4]): 59 ± 4 μmol/100 g/min
- LCGU, CA1 stratum radiatum (rats; [4]): 66 ± 4 μmol/100 g/min
- LCGU, CA3 molecular layer (rats; [4]): 90 ± 4 μmol/100 g/min
- LCGU, CA3 pyramidal cell layer (rats; [4]): 71 ± 4 μmol/100 g/min
- LCGU, CA3 stratum oriens (rats; [4]): 64 ± 4 μmol/100 g/min
- LCGU, CA3 stratum radiatum (rats; [4]): 73 ± 1 μmol/100 g/min
- LCGU, DLL (rats; [4]): 92 ± 4 μmol/100 g/min
- LCGU, MD (rats; [4]): 117 ± 5 μmol/100 g/min
- LCGU, PrL layer I (rats; [4]): 114 ± 4 μmol/100 g/min
- LCGU, PrL layers II & III (rats; [4]): 131 ± 4 μmol/100 g/min
- LCGU, PrL layers V & VI (rats; [4]): 93 ± 4 μmol/100 g/min
- LCGU, Rt (rats; [4]): 86 ± 4 μmol/100 g/min
- LCGU, VLL (rats; [4]): 106 ± 5 μmol/100 g/min
- LCGU, cochlear nucleus (rats; [4]): 99 ± 9 μmol/100 g/min
- LCGU, mO layer I (rats; [4]): 93 ± 4 μmol/100 g/min
- LCGU, mO layers II & III (rats; [4]): 106 ± 4 μmol/100 g/min
- LCGU, mO layers V & VI (rats; [4]): 102 ± 4 μmol/100 g/min
- effect on PCP-induced reductions in CIRL2 (CIRL2 variant AB mRNA): reversed
- levels of TNFα in rat prefrontal cortex (TNFα mRNA): significantly different from the chronic PCP group
- effect on PCP-induced reductions in the level of CIRL1 mRNA (CIRL1 mRNA): not

SMILES: CN1CCN(C2=Nc3cc(Cl)ccc3Nc3ccccc32)CC1 [clozapine]
- LCGU, Au layer I (rats; [3]): 140 ± 5 μmol/100 g/min
- LCGU, Au layers II, III&IV (rats; [3]): 166 ± 6 μmol/100 g/min
- LCGU, Au layers V & VI (rats; [3]): 118 ± 4 μmol/100 g/min
- LCGU, AuD layer I (rats; [3]): 135 ± 5 μmol/100 g/min
- LCGU, AuD layers II, III&IV (rats; [3]): 152 ± 6 μmol/100 g/min
- LCGU, AuD layers V & VI (rats; [3]): 107 ± 4 μmol/100 g/min
- LCGU, CA1 molecular layer (rats; [3]): 87 ± 2 μmol/100 g/min
- LCGU, CA1 pyramidal cell layer (rats; [3]): 62 ± 2 μmol/100 g/min
- LCGU, CA1 stratum oriens (rats; [3]): 57 ± 2 μmol/100 g/min
- LCGU, CA1 stratum radiatum (rats; [3]): 66 ± 3 μmol/100 g/min
- LCGU, CA3 molecular layer (rats; [3]): 84 ± 2 μmol/100 g/min
- LCGU, CA3 pyramidal cell layer (rats; [3]): 69 ± 3 μmol/100 g/min
- LCGU, CA3 stratum oriens (rats; [3]): 62 ± 1 μmol/100 g/min
- LCGU, CA3 stratum radiatum (rats; [3]): 69 ± 2 μmol/100 g/min
- LCGU, DLL (rats; [3]): 108 ± 5 μmol/100 g/min
- LCGU, MD (rats; [3]): 113 ± 3 μmol/100 g/min
- LCGU, PrL layer I (rats; [3]): 118 ± 6 μmol/100 g/min
- LCGU, PrL layers II & III (rats; [3]): 134 ± 7 μmol/100 g/min
- LCGU, PrL layers V & VI (rats; [3]): 104 ± 5 μmol/100 g/min
- LCGU, Rt (rats; [3]): 81 ± 2 μmol/100 g/min
- LCGU, VLL (rats; [3]): 118 ± 5 μmol/100 g/min
- LCGU, cochlear nucleus (rats; [3]): 119 ± 8 μmol/100 g/min
- LCGU, mO layer I (rats; [3]): 104 ± 5 μmol/100 g/min
- LCGU, mO layers II & III (rats; [3]): 112 ± 6 μmol/100 g/min
- LCGU, mO layers V & VI (rats; [3]): 115 ± 5 μmol/100 g/min
- LCGU, Au layer I (rats; [4]): 136 ± 6 μmol/100 g/min
- LCGU, Au layers II, III&IV (rats; [4]): 169 ± 6 μmol/100 g/min
- LCGU, Au layers V & VI (rats; [4]): 126 ± 4 μmol/100 g/min
- LCGU, AuD layer I (rats; [4]): 136 ± 4 μmol/100 g/min
- LCGU, AuD layers II, III&IV (rats; [4]): 154 ± 5 μmol/100 g/min
- LCGU, AuD layers V & VI (rats; [4]): 115 ± 6 μmol/100 g/min
- LCGU, CA1 molecular layer (rats; [4]): 102 ± 5 μmol/100 g/min
- LCGU, CA1 pyramidal cell layer (rats; [4]): 78 ± 4 μmol/100 g/min
- LCGU, CA1 stratum oriens (rats; [4]): 72 ± 4 μmol/100 g/min
- LCGU, CA1 stratum radiatum (rats; [4]): 80 ± 4 μmol/100 g/min
- LCGU, CA3 molecular layer (rats; [4]): 96 ± 4 μmol/100 g/min
- LCGU, CA3 pyramidal cell layer (rats; [4]): 81 ± 4 μmol/100 g/min
- LCGU, CA3 stratum oriens (rats; [4]): 74 ± 4 μmol/100 g/min
- LCGU, CA3 stratum radiatum (rats; [4]): 83 ± 5 μmol/100 g/min
- LCGU, DLL (rats; [4]): 99 ± 5 μmol/100 g/min
- LCGU, MD (rats; [4]): 124 ± 6 μmol/100 g/min
- LCGU, PrL layer I (rats; [4]): 119 ± 4 μmol/100 g/min
- LCGU, PrL layers II & III (rats; [4]): 139 ± 5 μmol/100 g/min
- LCGU, PrL layers V & VI (rats; [4]): 98 ± 4 μmol/100 g/min
- LCGU, Rt (rats; [4]): 95 ± 4 μmol/100 g/min
- LCGU, VLL (rats; [4]): 109 ± 5 μmol/100 g/min
- LCGU, cochlear nucleus (rats; [4]): 108 ± 7 μmol/100 g/min
- LCGU, mO layer I (rats; [4]): 93 ± 4 μmol/100 g/min
- LCGU, mO layers II & III (rats; [4]): 109 ± 4 μmol/100 g/min
- LCGU, mO layers V & VI (rats; [4]): 106 ± 5 μmol/100 g/min
